US11945816B2, “Inhibitors of EGFR and/or HER2 and methods of use” (Dana-Farber Cancer Institute, Inc., priority 2017, dated 2024)

Assays:
Format in all cases: cell-based
[1] = target: T1, HER2 InsWLV transformed Ba/F3 cells (Homo sapiens, UniProt P04626, INS773WL/M774V); test: Proliferation inhibition assay, HER2 InsWLV transformed Ba/F3 cells; details: MTS assay, 72 hours
T1 construct: expressed in transfected cells; host or cells: Ba/F3
Experimental: (§1) Cell growth inhibition can be assessed by MTS assay or by Cell Titer Glo Luminescent Cell viability assay (Promega®). Cells are seeded and grow in culture plates before they are exposed to representative compounds of the application for various duration. The viability of the cells are then assessed. […] The growth curves can be fitted using a nonlinear regression model with sigmoidal dose response.
(§2) Cell growth inhibition was assessed by MTS assay for Ba/F3, DFCI58-229, and DFCI127c cells, or by Cell Titer Glo Luminescent Cell viability assay (Promega®) for DFC1362JC cells, 3000 Ba/F3 cells were seeded for per well in 96-well plates, and were exposed to representative compounds of the application (3.3 nM to 10 μM) for 72 hours. For DFCI58-229, DFCI127c, and DFC1362JC cells, 5000 cells were seeded per well. All experimental points included 6 to 12 wells. […] The growth curves were fitted using a nonlinear regression model with sigmoidal dose response.
(§3) Activities of representative compounds of the present application in inhibiting EGFR and HER2 were tested by MTS assay (for Ba/F3 cell, DFCI58-229 cell, and DFCI127c cells) or by CellTiter-Glot luminescent cell viability assay (for DFCI362JC cells). For assays with Ba/F3 cells, 3000 cells were seeded for per well in 96-well plates and were exposed to indicated compounds with a concentration of 3.3 to 10 μM for 72 hours. For assays with DFCI58-229 cell, DFCI127c cell, or DFCI362JC cell, 5000 cells were seeded per well in 96-well plates and were exposed to indicated compounds with a concentration of 3.3 to 10 μM for 72 hours.

[2] = target: T2, EGFR InsNPG (D770_N771insNPG) transformed Ba/F3 cells (Homo sapiens, UniProt P00533, INS770NPG); test: Proliferation inhibition assay, EGFR InsNPG transformed Ba/F3 cells; details: MTS assay, 72 hours
T2 construct: expressed in transfected cells; host or cells: Ba/F3
Experimental: as §1, §2, §3

[3] = target: T3, EGFR InsHH (Y764_V765insHH) transformed Ba/F3 cells (Homo sapiens, UniProt P00533, INS764HH); test: Proliferation inhibition assay, EGFR InsHH transformed Ba/F3 cells; details: MTS assay, 72 hours
T3 construct: expressed in transfected cells; host or cells: Ba/F3
Experimental: as §1, §2, §3

[4] = target: T4, HER2 InsVC (G776delinsVC) transformed Ba/F3 cells (Homo sapiens, UniProt P04626, G776C/INS775V); test: Proliferation inhibition assay, HER2 InsVC transformed Ba/F3 cells; details: MTS assay, 72 hours, Table 9 key
T4 construct: expressed in transfected cells; host or cells: Ba/F3
T4 sequence (P04626 with tags, fused parts or gaps INS775V/G776C): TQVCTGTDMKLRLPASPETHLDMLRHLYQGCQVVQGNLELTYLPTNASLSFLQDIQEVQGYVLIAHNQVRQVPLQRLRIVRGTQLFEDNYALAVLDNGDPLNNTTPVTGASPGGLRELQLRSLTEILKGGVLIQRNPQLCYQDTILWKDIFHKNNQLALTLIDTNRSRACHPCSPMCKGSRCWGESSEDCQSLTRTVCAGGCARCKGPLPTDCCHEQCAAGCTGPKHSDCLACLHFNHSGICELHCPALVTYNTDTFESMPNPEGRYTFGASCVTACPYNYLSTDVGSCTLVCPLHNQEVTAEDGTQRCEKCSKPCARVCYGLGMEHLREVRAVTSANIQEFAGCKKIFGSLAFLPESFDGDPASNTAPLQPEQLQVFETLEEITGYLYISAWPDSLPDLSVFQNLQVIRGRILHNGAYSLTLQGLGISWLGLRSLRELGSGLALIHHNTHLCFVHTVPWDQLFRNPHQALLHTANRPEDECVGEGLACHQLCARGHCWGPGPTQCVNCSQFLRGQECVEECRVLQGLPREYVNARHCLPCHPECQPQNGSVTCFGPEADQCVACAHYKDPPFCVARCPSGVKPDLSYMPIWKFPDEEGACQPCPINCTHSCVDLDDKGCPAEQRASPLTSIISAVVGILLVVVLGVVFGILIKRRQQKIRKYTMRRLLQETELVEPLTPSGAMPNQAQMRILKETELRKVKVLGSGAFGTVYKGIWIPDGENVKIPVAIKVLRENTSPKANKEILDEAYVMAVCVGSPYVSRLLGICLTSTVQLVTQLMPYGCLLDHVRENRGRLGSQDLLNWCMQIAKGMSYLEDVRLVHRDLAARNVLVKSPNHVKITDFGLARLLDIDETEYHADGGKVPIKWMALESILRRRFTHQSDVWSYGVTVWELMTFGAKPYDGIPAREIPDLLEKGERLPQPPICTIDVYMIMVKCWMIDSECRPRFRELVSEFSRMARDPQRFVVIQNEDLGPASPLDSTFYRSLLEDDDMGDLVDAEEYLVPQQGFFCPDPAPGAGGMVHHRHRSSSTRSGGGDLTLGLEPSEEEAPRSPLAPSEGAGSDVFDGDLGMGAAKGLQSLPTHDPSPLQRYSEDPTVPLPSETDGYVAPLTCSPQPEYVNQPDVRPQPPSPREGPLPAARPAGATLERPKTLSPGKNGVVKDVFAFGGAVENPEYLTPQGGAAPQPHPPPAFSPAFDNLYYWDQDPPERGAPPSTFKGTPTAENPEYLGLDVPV
Experimental: as §1, §2, §3

[5] = target: T5, EGFR InsSVD (D770_N771insSVD) transformed Ba/F3 cells (Homo sapiens, UniProt P00533, INS770SVD); test: Proliferation inhibition assay, EGFR InsSVD transformed Ba/F3 cells; details: MTS assay, 72 hours
T5 construct: expressed in transfected cells; host or cells: Ba/F3
Experimental: as §1, §2, §3

[6] = target: T6, wild-type HER2 transformed Ba/F3 cells (Homo sapiens, UniProt P04626); test: Proliferation inhibition assay, wild-type HER2 transformed Ba/F3 cells; details: MTS assay, 72 hours
T6 construct: expressed in transfected cells; host or cells: Ba/F3
Experimental: as §1, §2, §3

[7] = target: T7, HER2 InsGSP (P780_Y781insGSP) transformed Ba/F3 cells (Homo sapiens, UniProt P04626, INS780GSP); test: Proliferation inhibition assay, HER2 InsGSP transformed Ba/F3 cells; details: MTS assay, 72 hours, Table 9 key
T7 construct: expressed in transfected cells; host or cells: Ba/F3
T7 sequence (P04626 with tags, fused parts or gaps INS780GSP): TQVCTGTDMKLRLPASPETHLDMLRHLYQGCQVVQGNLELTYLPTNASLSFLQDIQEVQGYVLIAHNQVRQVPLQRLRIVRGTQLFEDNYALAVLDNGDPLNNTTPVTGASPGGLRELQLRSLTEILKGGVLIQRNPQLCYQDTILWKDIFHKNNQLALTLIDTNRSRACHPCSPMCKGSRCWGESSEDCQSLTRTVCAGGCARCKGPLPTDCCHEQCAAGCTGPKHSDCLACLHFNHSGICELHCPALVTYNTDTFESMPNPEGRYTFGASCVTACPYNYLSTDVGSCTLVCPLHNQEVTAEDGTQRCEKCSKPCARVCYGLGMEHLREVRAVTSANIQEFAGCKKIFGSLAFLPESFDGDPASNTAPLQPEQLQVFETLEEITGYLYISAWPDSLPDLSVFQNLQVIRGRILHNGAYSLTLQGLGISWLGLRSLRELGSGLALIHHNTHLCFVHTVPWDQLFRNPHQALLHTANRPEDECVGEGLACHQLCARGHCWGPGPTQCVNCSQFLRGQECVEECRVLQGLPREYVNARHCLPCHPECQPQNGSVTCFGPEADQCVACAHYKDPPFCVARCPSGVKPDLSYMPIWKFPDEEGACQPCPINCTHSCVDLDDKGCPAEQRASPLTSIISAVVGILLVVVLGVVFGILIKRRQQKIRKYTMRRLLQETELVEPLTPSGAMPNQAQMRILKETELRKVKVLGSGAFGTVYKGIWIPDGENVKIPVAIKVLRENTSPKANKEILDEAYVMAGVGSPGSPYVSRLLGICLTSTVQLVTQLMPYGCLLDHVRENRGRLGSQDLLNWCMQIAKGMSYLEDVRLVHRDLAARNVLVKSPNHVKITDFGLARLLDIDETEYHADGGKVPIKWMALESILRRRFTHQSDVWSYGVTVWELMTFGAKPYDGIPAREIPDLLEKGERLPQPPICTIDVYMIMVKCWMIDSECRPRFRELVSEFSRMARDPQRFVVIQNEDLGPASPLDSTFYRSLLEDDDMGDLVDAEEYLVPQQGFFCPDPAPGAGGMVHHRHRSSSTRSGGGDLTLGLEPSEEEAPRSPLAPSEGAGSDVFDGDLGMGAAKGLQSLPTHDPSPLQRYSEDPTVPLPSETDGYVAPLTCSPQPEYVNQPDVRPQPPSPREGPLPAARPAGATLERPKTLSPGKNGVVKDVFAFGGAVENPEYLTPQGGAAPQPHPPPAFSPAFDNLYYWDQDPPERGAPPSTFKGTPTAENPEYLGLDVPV
Experimental: as §1, §2, §3

[8] = target: T8, EGFR InsGY (D770delinsGY) transformed Ba/F3 cells (Homo sapiens, UniProt P00533, D770Y/INS769G); test: Proliferation inhibition assay, EGFR InsGY transformed Ba/F3 cells; details: MTS assay, 72 hours
T8 construct: expressed in transfected cells; host or cells: Ba/F3
T8 sequence (P00533 with tags, fused parts or gaps INS769G/D770Y): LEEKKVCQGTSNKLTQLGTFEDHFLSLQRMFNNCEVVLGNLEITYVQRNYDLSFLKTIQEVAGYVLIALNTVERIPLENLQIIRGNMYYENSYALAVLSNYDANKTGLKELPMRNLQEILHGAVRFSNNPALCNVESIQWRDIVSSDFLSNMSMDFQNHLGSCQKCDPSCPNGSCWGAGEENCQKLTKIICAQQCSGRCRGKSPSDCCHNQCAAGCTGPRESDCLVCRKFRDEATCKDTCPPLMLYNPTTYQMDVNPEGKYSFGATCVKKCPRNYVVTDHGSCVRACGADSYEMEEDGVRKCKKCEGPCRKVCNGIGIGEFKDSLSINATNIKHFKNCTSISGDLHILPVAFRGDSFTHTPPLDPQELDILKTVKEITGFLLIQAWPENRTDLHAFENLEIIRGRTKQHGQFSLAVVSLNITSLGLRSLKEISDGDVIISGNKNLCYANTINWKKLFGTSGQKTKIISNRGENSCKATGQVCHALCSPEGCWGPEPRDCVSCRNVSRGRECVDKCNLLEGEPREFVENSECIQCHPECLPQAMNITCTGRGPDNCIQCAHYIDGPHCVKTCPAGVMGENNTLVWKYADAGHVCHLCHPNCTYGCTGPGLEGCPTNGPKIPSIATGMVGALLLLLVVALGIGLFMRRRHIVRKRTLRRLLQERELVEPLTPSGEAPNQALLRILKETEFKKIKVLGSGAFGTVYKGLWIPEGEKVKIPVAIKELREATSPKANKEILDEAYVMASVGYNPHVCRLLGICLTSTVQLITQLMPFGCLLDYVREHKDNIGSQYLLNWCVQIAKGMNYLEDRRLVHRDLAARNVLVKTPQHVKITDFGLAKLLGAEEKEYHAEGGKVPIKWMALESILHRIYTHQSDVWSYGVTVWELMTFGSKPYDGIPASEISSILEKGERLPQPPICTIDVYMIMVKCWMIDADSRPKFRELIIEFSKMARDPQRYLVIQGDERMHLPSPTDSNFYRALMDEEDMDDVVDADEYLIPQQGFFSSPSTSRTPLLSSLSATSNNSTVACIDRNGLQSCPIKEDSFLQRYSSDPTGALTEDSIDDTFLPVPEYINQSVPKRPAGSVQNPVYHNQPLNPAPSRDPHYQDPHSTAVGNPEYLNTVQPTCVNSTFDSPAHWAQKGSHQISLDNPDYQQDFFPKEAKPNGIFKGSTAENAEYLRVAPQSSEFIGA
Experimental: as §1, §2, §3

[9] = target: T9, EGFR InsH transformed Ba/F3 cells (Homo sapiens, UniProt P00533, DUP773-773); test: Proliferation inhibition assay, EGFR InsH transformed Ba/F3 cells; details: MTS assay, 72 hours
T9 construct: expressed in transfected cells; host or cells: Ba/F3
Experimental: as §1, §2, §3

[10] = target: T10, wild-type EGFR transformed Ba/F3 cells (Homo sapiens, UniProt P00533); test: Proliferation inhibition assay, wild-type EGFR transformed Ba/F3 cells; details: MTS assay, 72 hours
T10 construct: expressed in transfected cells; host or cells: Ba/F3
Experimental: as §1, §2, §3

[11] = target: T11, HER2 InsYVMA (A775_G776insYVMA) transformed Ba/F3 cells (Homo sapiens, UniProt P04626, INS775YVMA); test: Proliferation inhibition assay, HER2 InsYVMA transformed Ba/F3 cells; details: MTS assay, 72 hours
T11 construct: expressed in transfected cells; host or cells: Ba/F3
T11 sequence (P04626 with tags, fused parts or gaps INS775YVMA): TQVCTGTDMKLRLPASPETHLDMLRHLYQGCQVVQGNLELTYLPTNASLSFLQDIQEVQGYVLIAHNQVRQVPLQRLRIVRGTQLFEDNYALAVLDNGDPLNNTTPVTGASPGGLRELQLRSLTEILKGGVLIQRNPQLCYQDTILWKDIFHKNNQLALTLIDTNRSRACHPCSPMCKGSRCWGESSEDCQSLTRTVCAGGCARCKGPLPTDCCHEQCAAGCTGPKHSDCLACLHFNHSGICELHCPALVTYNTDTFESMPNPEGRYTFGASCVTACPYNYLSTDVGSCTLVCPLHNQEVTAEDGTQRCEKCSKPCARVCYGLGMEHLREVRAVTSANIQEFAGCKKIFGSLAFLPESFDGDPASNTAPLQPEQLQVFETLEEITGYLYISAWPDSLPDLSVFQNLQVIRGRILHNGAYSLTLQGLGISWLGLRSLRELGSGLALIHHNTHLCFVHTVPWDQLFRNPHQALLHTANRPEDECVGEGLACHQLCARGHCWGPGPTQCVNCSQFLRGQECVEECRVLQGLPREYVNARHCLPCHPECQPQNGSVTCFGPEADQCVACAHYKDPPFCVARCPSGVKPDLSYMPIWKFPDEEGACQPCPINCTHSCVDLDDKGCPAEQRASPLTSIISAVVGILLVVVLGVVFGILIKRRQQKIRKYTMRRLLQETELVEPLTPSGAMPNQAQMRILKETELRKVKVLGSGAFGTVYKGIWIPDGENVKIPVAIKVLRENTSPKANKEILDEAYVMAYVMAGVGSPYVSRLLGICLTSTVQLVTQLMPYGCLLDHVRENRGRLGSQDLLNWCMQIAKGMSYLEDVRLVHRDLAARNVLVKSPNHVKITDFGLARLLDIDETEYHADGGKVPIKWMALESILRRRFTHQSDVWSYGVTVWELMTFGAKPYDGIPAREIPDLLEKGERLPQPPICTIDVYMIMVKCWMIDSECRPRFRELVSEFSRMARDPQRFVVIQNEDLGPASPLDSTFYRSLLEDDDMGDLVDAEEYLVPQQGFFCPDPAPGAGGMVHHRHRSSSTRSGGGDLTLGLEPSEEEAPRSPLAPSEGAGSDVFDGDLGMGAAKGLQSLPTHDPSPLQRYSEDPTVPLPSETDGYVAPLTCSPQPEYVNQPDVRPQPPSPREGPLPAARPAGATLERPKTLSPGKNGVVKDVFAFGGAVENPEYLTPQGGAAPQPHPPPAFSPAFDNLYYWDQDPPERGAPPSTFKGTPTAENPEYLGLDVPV
Experimental: as §1, §2, §3

[12] = target: T12, EGFR InsASV (V769_D770insASV) transformed Ba/F3 cells (Homo sapiens, UniProt P00533, INS769ASV); test: Proliferation inhibition assay, EGFR InsASV transformed Ba/F3 cells; details: MTS assay, 72 hours
T12 construct: expressed in transfected cells; host or cells: Ba/F3
Experimental: as §1, §2, §3

SMILES | EC50 ([1]; Table 9 key) [nM] | EC50 [2] [nM] | EC50 [3] [nM] | EC50 [4] [nM] | EC50 [5] [nM] | EC50 ([6]; Table 9 key) [nM] | EC50 [7] [nM] | EC50 [8] [nM] | EC50 [9] [nM] | EC50 [10] [nM] | EC50 ([11]; Table 9 key) [nM] | EC50 [12] [nM] | EC50 ([1]; Table 10 key) [nM] | EC50 ([6]; Table 10 key) [nM] | EC50 ([11]; Table 10 key) [nM]
C=CC(=O)N1CCCC(n2c(=O)c(Oc3ccc(F)cc3F)cc3cnc(Nc4cnn(C)c4)nc32)CC1 (stereo not shown) [Compound 24] | 100 to 250 | < 200 | 200 to 600 | < 100 | < 200 | < 100 | < 100 | < 200 | 200 to 600 | < 200 | < 100 | < 200 | – | – | –
C=CC(=O)N1CCC(Cn2c(=O)c(Oc3ccc(F)cc3F)cc3cnc(Nc4cnn(C)c4)nc32)C1 (stereo not shown) [Compound 26] | 100 to 250 | < 200 | 600 to 1000 | 250 to 500 | < 200 | < 100 | < 100 | < 200 | > 1000 | < 200 | > 500 | < 200 | – | – | –
C=CC(=O)Nc1cc(Nc2ncc3cc(Oc4ccc(F)cc4F)c(=O)n(C)c3n2)c(OC)cc1N(C)CCN(C)C [Compound 29, N-(5-((6-(2,4-difluorophenoxy)-8-methyl-7-oxo-7,8-dihydropyrido[2,3-d]pyrimidin-2-yl)amino)-2-((2-(dimethylamino)ethyl)(methyl)amino)-4-methoxyphenyl)acrylamide] | < 100 | < 200 | < 200 | < 100 | < 200 | < 100 | < 100 | < 200 | < 200 | < 200 | < 100 | < 200 | – | – | –
C=CC(=O)Nc1cccc(-n2c(=O)c(Oc3ccc(F)cc3F)cc3cnc(Nc4cnn(C5CCN(C)CC5)c4)nc32)c1 [Compound 3] | 100 to 250 | < 200 | 200 to 600 | 100 to 250 | < 200 | < 100 | < 100 | < 200 | 200 to 600 | < 200 | < 100 | < 200 | – | – | –
C=CC(=O)Nc1cc(Nc2ncc3cc(Nc4ccc(F)cc4F)c(=O)n(C)c3n2)c(OC)cc1N(C)CCN(C)C [Compound 141] | < 100 | – | – | – | < 200 | < 100 | – | < 200 | 200 to 600 | < 200 | < 100 | – | – | – | –
C=CC(=O)NC1CCCC(n2c(=O)c(Oc3ccc(F)cc3F)cc3cnc(Nc4cnn(C)c4)nc32)C1 (stereo not shown) [Compound 23] | 100 to 250 | < 200 | < 200 | < 100 | < 200 | < 100 | < 100 | < 200 | 200 to 600 | < 200 | < 100 | < 200 | – | – | –
C=CC(=O)Nc1cc(Nc2ncc3cc(Oc4ccc(F)cc4F)c(N)nc3n2)c(OC)cc1N(C)CCN(C)C [Compound 140] | 250 to 500 | – | – | – | 200 to 600 | < 100 | – | 200 to 600 | 600 to 1000 | < 200 | < 100 | – | – | – | –
C=CC(=O)Nc1cc(Nc2ncc3cc(Oc4ccc(F)cc4F)c(=O)n(CC(F)(F)F)c3n2)c(OC)cc1N(C)CCN(C)C [Compound 85] | – | – | – | – | < 200 | – | – | < 200 | < 200 | < 200 | – | – | < 200 | < 200 | < 200
C=CC(=O)Nc1ccc(OC)c(Nc2ncc3cc(Oc4ccc(F)cc4F)c(=O)n(CCN(C)C)c3n2)c1 [Compound 94] | – | – | – | – | 200 to 600 | – | – | < 200 | > 1000 | < 200 | – | – | 200 to 600 | < 200 | < 200
